Laboratory results: patent publication US20050221359A1, “Cospeptin, cosmedin and their uses” (The Board of Trustees of the Leland Stanford Junior …, priority 2004, published 2005)
“Also recorded” adds a separate entry of the source.

Key:
[1] = tested on: cospeptin receptors in the pituitary; experiment: Displacement of 125I-Tyr0-cospeptin E binding in pituitary (competition studies); set-up: species or system rat; details: competition with 125I-Tyr0-cospeptin E
Protocol: (§1) Radiolabeling of cospeptin. Peptide iodination was performed according to the IODO-GEN procedure (Pierce, Upland, Ind.). The mixture of Tyr0-cospeptin E (20 μg) and 1 mCi [^125I] Nal was transferred to precoated IODO-GEN vials before incubation at room temperature for 4 min. The ^125I-labeled peptide was applied to a Sep-Pak C18 cartridge (Waters, Milford, Mass.) for purification and was eluted with 60% acetonitrile/0.1%TFA. The purified tracer was stored at −20° C.
(§2) Receptor binding experiments. Homogenates were prepared from different tissues of adult rats. Binding assays were performed in glass tubes. Routinely, tissue homogenates were incubated in 100 μl of binding buffer (PBS with 0.1% bovine serum albumin) for 16 h at room temperature with varying concentrations of ^125I-Tyr0-cospeptin E (100, 000 cpm˜2 nM) in the presence or absence of unlabelled Tyr0-cospeptin E (in 5,000 fold excess). After incubation, the tubes were centrifuged for 10 min at 10,000×g, and the pellet was washed twice in ice-cold PBS. Finally, Tyr0-cospeptin E bound to the tissues was counted using a gamma-spectrophotometer. Specifically bound counts were calculated by subtracting unspecific counts determined in the presence of 5,000-fold excess of nonlabeled peptide from total counts bound to the tissues. For displacement ^125I-Tyr0-cospeptin E binding, increasing concentrations of Tyr0-cospeptin E or other peptides or analogues (cospeptin E, cospeptin A, cospeptin B, cospeptin D, cospeptin F or cosmedin B) were added.

[2] = tested on: normal Sprague-Dawley rats; experiment: Effects of cospeptin on blood pressure and heart rate (tail-cuff method); assay type: in vivo, rat; details: intraperitoneal administration, conscious normal rats
Protocol: Effects of cospeptin on blood pressure and heart rate in normal […] rats. Blood pressure measurements in conscious male Sprague-Dawley rats (7-9 weeks of age) were made in animals preadapted to the measurement procedure. Indirect systolic pressure was determined by a programmable NIBP system using the tail-cuff method (Columbus Instruments, Columbus, Ohio). Following attachment of the pressure transducer, rats were left undisturbed for 10 min before baseline measurements that spanned a 15-min interval. Following baseline measurements, rats were injected intraperitoneally with varying doses of hormones. Blood pressure and heart rate were monitored for 50 min at 25-sec intervals. Changes in blood pressure were calculated as the average of thirty measurements performed within each 5-min interval.

C57/BL6 male mice = experiment: Effects of peptides on gastric emptying activity; assay type: in vivo, mouse; details: intraperitoneal injection, fed mice, stomach weighed after treatment
Protocol: Effects of peptides on gastric emptying activity Eight-week-old C57/BL6 male mice deprived of food for 20 h were given food pellets for 90 min before intraperitoneal injection with different hormones or saline. After treatment, mice were deprived of food again and killed 90 min later. The stomach was excised at the pylorus and cardia before weighing. Gastric emptying was calculated by comparing the stomach weight of treated mice to the stomach weight of control mice killed at the time of hormone injection. The rates of gastric emptying were calculated by the formula (wet weight of stomach in fed animals killed at 0 h minus wet weight at […] after treatment/wet weight of stomach in fed animals killed at 0 h)×100.

[3] = target: cospeptin E receptor in pituitary tissues; experiment: Saturation binding of 125I-Tyr0-cospeptin E to pituitary homogenate; details: saturation curve, rat pituitary gland
Protocol: as §1
as §2, with “For displacement ^125I-Tyr0-cospeptin E binding, increasing concentrations of Tyr0-cospeptin E or other peptides or analogues (cospeptin E, cospeptin A, cospeptin B, cospeptin D, cospeptin F or cosmedin B) were added.” left out

rat ileal tissue strips = experiment: Ileum contraction assay (organ bath, ileal muscle strips); details: for muscle contraction of ileal strips: cumulative concentrations 10 nM to 10 μM; for magnitude of contraction relative to maximum response to muscarinic agonist 5-methylfurmethide: normalised to 5-methylfurmethide maximum
Protocol: Ileum contraction assay. Female rats (˜350 g) were euthanized with CO2 and the abdominal cavity was opened to expose the intestines. A 3-cm length of ileum was removed, cleared of any adhering tissue and longitudinal strips of ileal muscle (2×5 mm) were cut. On average, six preparations were obtained from each animal. The tissues were suspended in 20-ml organ baths containing Krebs-Henseleit solution maintained at 32° C. containing 2.5 mM Ca^2+ and gassed continuously with 95% O2/5% CO2. The tissues were placed under a loading tension of 1 g. The tissue was equilibrated for 90 min after which a dose response curve of the peptide of interest was obtained at 0.5 log unit cumulative incremental concentrations from 10 nM to 10 μM.

Row | Substance | order of affinity to the cospeptin receptors [1] | blood pressure [2] | heart rate [2] | gastric emptying activity (C57/BL6 male mice) | further results
1 | cospeptin F: human cospeptin Form F, SEQ ID NO: 11, VWSDPFG (FYPIYFRPLLRLEEYQKEQAVNRAGIVQEDVQPPGLKVWSDPFGRK; rat) | cospeptin E=Tyr0-cospeptin E>cospeptin A,B>>cospeptin F>>cosmedin |  |  |  | 
2 | cospeptin A: human cospeptin Form A, SEQ ID NO: 6, FYPIYFRPLMRLEEYKKEQAINRAGIVQEDVQPPGLKVWSDPFG (KRNWTPQAMLYLKGAQGHRFISDQSRRK) | cospeptin E=Tyr0-cospeptin E>cospeptin A,B>>cospeptin F>>cosmedin | minimal effects | decreased heart rate |  | 
3 | cospeptin B: human cospeptin Form B, SEQ ID NO: 7, PLMRLEEYKKEQAINRAGIVQEDVQPPGLKVWSDPFG (KRNWTPQAMLYLKGAQGRRFLSDQSRRK) | cospeptin E=Tyr0-cospeptin E>cospeptin A,B>>cospeptin F>>cosmedin | suppressed blood pressure |  | exhibited gastric emptying activities; also recorded: effectively inhibits gastric emptying | 
4 | human cospeptin Form E, SEQ ID NO: 10, AGIVQEDVQPPGLKVWSDPFG [cospeptin E] | cospeptin E=Tyr0-cospeptin E>cospeptin A,B>>cospeptin F>>cosmedin | suppressed blood pressure | decreased heart rate |  | Kd [3]: 5 nM
5 | human cosmedin Form B, SEQ ID NO: 4, NWTPQAMLYLKGAQG; presumed amidated at carboxyl terminus [cosmedin B] | cospeptin E=Tyr0-cospeptin E>cospeptin A,B>>cospeptin F>>cosmedin |  |  | effectively inhibits gastric emptying | gastric emptying activity (C57/BL6 male mice; listed as cosmedin-B): suppressed gastric emptying activity in a dose-dependent manner; muscle contraction of ileal strips (rat ileal tissue strips): concentration dependent muscle contraction; muscle contraction of ileal strips (rat ileal tissue strips; listed as cosmedin-B): produced a concentration-dependent muscle contraction; also recorded: direct action of cosmedin-B on muscle contraction; magnitude of contraction relative to maximum response to muscarinic agonist 5-methylfurmethide (rat ileal tissue strips): comparable to that of the acetylcholine muscarinic receptor agonist 5-methylfurmethide; magnitude of contraction relative to maximum response to muscarinic agonist 5-methylfurmethide (rat ileal tissue strips; listed as cosmedin-B): comparable to that mediated by the muscarinic receptor stimulation; potency pA50 (rat ileal tissue strips; rat ileal tissue strips): 6.05±0.17
